In patent WO2015077660A1, “Enzyme reactor system enabling enhanced enzymatic digestion, analyte solubility and improved mass spectrometric compatibility” (priority 2013, dated 2014):

Key:
porcine trypsin = test system: T1, porcine trypsin; assay: Insulin digestion by trypsin in solution, buffer screening (Table 9); assay type: biochemical; conditions: 37°C, 18 h
T1 construct: purchased

trypsin = assay: Insulin digestion in immobilized enzyme reactor, buffer screening (Table 7); assay type: biochemical, porcine; conditions: IMER, 70°C, 60 s

`CC#N` [ACN, acetonitrile] was tested, and the Digested (porcine trypsin; 5%) was 1409360, the Peptide (porcine trypsin; 5%) was 625535 and the Undigested (porcine trypsin; 5%) was 5143004. It also gave a Digested (porcine trypsin; 10%) of 1676314, a Peptide (porcine trypsin; 10%) of 692364 and an Undigested (porcine trypsin; 10%) of 4742266. For the same compound, the Digested (porcine trypsin; 15%) was 1925305, the Peptide (porcine trypsin; 15%) was 779339 and the Undigested (porcine trypsin; 15%) was 2715010. For the same compound, the Digested (porcine trypsin; 20%) was 2507679, the Peptide (porcine trypsin; 20%) was 1020020 and the Undigested (porcine trypsin; 20%) was 3445401. For the same compound, the Digested (trypsin; 5%) was 1344796, the Peptide (trypsin; 5%) was 568057 and the Undigested (trypsin; 5%) was 3327305. The Digested (trypsin; 10%) was 719966, the Peptide (trypsin; 10%) was 309638 and the Undigested (trypsin; 10%) was 4860471. The Digested (trypsin; 15%) was 292205, the Peptide (trypsin; 15%) was 116402 and the Undigested (trypsin; 15%) was 5326017. The Digested (trypsin; 20%) was 194140, the Peptide (trypsin; 20%) was 86754 and the Undigested (trypsin; 20%) was 6433237.

`C[S+](C)[O-]` [DMSO, dimethylsulfoxide] gave a Digested (porcine trypsin; 5%) of 1193067, a Peptide (porcine trypsin; 5%) of 499051 and an Undigested (porcine trypsin; 5%) of 3219771. It also gave a Digested (porcine trypsin; 10%) of 1185116, a Peptide (porcine trypsin; 10%) of 442885 and an Undigested (porcine trypsin; 10%) of 3803031. For the same compound, the Digested (porcine trypsin; 15%) was 1233021, the Peptide (porcine trypsin; 15%) was 481657 and the Undigested (porcine trypsin; 15%) was 4423224. For the same compound, the Digested (porcine trypsin; 20%) was 1215388, the Peptide (porcine trypsin; 20%) was 467559 and the Undigested (porcine trypsin; 20%) was 4523186. It also gave a Digested (trypsin; 5%) of 1804007, a Peptide (trypsin; 5%) of 719810 and an Undigested (trypsin; 5%) of 2280353. The Digested (trypsin; 10%) was 1483343, the Peptide (trypsin; 10%) was 618353 and the Undigested (trypsin; 10%) was 2811668. The Digested (trypsin; 15%) was 1058609, the Peptide (trypsin; 15%) was 437967 and the Undigested (trypsin; 15%) was 3394971. It also gave a Digested (trypsin; 20%) of 722730, a Peptide (trypsin; 20%) of 296540 and an Undigested (trypsin; 20%) of 3631216.

`O=S(=O)(O)CCN1CCN(CCO)CC1` [HEPES] gave a Digested (porcine trypsin; 50 mM) of 1758816, a Peptide (porcine trypsin; 50 mM) of 758959 and an Undigested (porcine trypsin; 50 mM) of 2816170. It also gave a Digested (trypsin; 50 mM) of 2438065, a Peptide (trypsin; 50 mM) of 1040553 and an Undigested (trypsin; 50 mM) of 1152957.

`CC(C)O` [IPA, isopropyl alcohol] gave a Digested (porcine trypsin; 5%) of 1024085, a Peptide (porcine trypsin; 5%) of 407876 and an Undigested (porcine trypsin; 5%) of 3528233. For the same compound, the Digested (porcine trypsin; 10%) was 1133300, the Peptide (porcine trypsin; 10%) was 418703 and the Undigested (porcine trypsin; 10%) was 3935383. The Digested (porcine trypsin; 15%) was 906822, the Peptide (porcine trypsin; 15%) was 322103 and the Undigested (porcine trypsin; 15%) was 4509078. It also gave a Digested (porcine trypsin; 20%) of 954036, a Peptide (porcine trypsin; 20%) of 347874 and an Undigested (porcine trypsin; 20%) of 4992140. The Digested (trypsin; 5%) was 696091, the Peptide (trypsin; 5%) was 291902 and the Undigested (trypsin; 5%) was 4427643. The Digested (trypsin; 10%) was 208098, the Peptide (trypsin; 10%) was 86945 and the Undigested (trypsin; 10%) was 5774155. For the same compound, the Digested (trypsin; 15%) was 126129, the Peptide (trypsin; 15%) was 52332 and the Undigested (trypsin; 15%) was 5930073. For the same compound, the Digested (trypsin; 20%) was 135325, the Peptide (trypsin; 20%) was 55155 and the Undigested (trypsin; 20%) was 5148164.

`CO` [MeOH, methanol] was tested, and the Digested (porcine trypsin; 5%) was 1415794, the Peptide (porcine trypsin; 5%) was 576911 and the Undigested (porcine trypsin; 5%) was 5318134. The Digested (porcine trypsin; 10%) was 216568, the Peptide (porcine trypsin; 10%) was 88569 and the Undigested (porcine trypsin; 10%) was 4800365. It also gave a Digested (porcine trypsin; 15%) of 1700395, a Peptide (porcine trypsin; 15%) of 666807 and an Undigested (porcine trypsin; 15%) of 4218905. It also gave a Digested (porcine trypsin; 20%) of 1986863, a Peptide (porcine trypsin; 20%) of 756073 and an Undigested (porcine trypsin; 20%) of 3394642. For the same compound, the Digested (trypsin; 5%) was 1511720, the Peptide (trypsin; 5%) was 627591 and the Undigested (trypsin; 5%) was 2902781. For the same compound, the Digested (trypsin; 10%) was 1001203, the Peptide (trypsin; 10%) was 417070 and the Undigested (trypsin; 10%) was 3946896. For the same compound, the Digested (trypsin; 15%) was 675569, the Peptide (trypsin; 15%) was 277958 and the Undigested (trypsin; 15%) was 5012221. For the same compound, the Digested (trypsin; 20%) was 518131, the Peptide (trypsin; 20%) was 213935 and the Undigested (trypsin; 20%) was 5268985.

Compound `[Cl-].[Na+]` [NaCl] has a Digested (porcine trypsin; 0.1M) of 1527956, a Peptide (porcine trypsin; 0.1M) of 648564 and an Undigested (porcine trypsin; 0.1M) of 3295178. It also gave a Digested (porcine trypsin; 0.25M) of 1178089, a Peptide (porcine trypsin; 0.25M) of 484049 and an Undigested (porcine trypsin; 0.25M) of 3432057. For the same compound, the Digested (porcine trypsin; 0.5M) was 884946, the Peptide (porcine trypsin; 0.5M) was 350436 and the Undigested (porcine trypsin; 0.5M) was 4517343. For the same compound, the Digested (porcine trypsin; 1M) was 670170, the Peptide (porcine trypsin; 1M) was 249834 and the Undigested (porcine trypsin; 1M) was 4981512. The Digested (porcine trypsin; 2M) was 378641, the Peptide (porcine trypsin; 2M) was 111600 and the Undigested (porcine trypsin; 2M) was 4745627. It also gave a Digested (trypsin; 0.1M) of 2262987, a Peptide (trypsin; 0.1M) of 925368 and an Undigested (trypsin; 0.1M) of 1557233. For the same compound, the Digested (trypsin; 0.25M) was 2119184, the Peptide (trypsin; 0.25M) was 866812 and the Undigested (trypsin; 0.25M) was 2102900. It also gave a Digested (trypsin; 0.5M) of 2146822, a Peptide (trypsin; 0.5M) of 862093 and an Undigested (trypsin; 0.5M) of 1679944. The Digested (trypsin; 1M) was 2363025, the Peptide (trypsin; 1M) was 944511 and the Undigested (trypsin; 1M) was 1205692. The Digested (trypsin; 2M) was 2660004, the Peptide (trypsin; 2M) was 966823 and the Undigested (trypsin; 2M) was 332026.

With `C[C@H](CCC(=O)[O-])[C@H]1CC[C@H]2[C@@H]3CC[C@@H]4C[C@H](O)CC[C@]4(C)[C@H]3C[C@H](O)[C@]12C.[Na+]` [SDC, sodium deoxycholate] the Digested (porcine trypsin; 0.1%) was 1284656, the Peptide (porcine trypsin; 0.1%) was 5961 and the Undigested (porcine trypsin; 0.1%) was 3123245. The Digested (porcine trypsin; 0.2%) was 12332, the Peptide (porcine trypsin; 0.2%) was 480241 and the Undigested (porcine trypsin; 0.2%) was 29962. The Digested (porcine trypsin; 0.5%) was 114517, the Peptide (porcine trypsin; 0.5%) was 361200 and the Undigested (porcine trypsin; 0.5%) was 499326. For the same compound, the Digested (porcine trypsin; 1%) was 124131, the Peptide (porcine trypsin; 1%) was 239833 and the Undigested (porcine trypsin; 1%) was 1149062. It also gave a Digested (trypsin; 0.1%) of 296346, a Peptide (trypsin; 0.1%) of 101770 and an Undigested (trypsin; 0.1%) of 4216641. For the same compound, the Digested (trypsin; 0.2%) was 94589, the Peptide (trypsin; 0.2%) was 30902 and the Undigested (trypsin; 0.2%) was 5010947. It also gave a Digested (trypsin; 0.5%) of 12088, a Peptide (trypsin; 0.5%) of 1351 and an Undigested (trypsin; 0.5%) of 1648635. It also gave a Digested (trypsin; 1%) of 8134, a Peptide (trypsin; 1%) of 1275 and an Undigested (trypsin; 1%) of 284843.

For `OCC(F)(F)F` [TFE], the Digested (porcine trypsin; 5%) was 710737, the Peptide (porcine trypsin; 5%) was 271046 and the Undigested (porcine trypsin; 5%) was 4417966. The Digested (porcine trypsin; 10%) was 512715, the Peptide (porcine trypsin; 10%) was 201962 and the Undigested (porcine trypsin; 10%) was 4499811. The Digested (porcine trypsin; 15%) was 571716, the Peptide (porcine trypsin; 15%) was 224520 and the Undigested (porcine trypsin; 15%) was 4785656. It also gave a Digested (porcine trypsin; 20%) of 661078, a Peptide (porcine trypsin; 20%) of 253234 and an Undigested (porcine trypsin; 20%) of 4907160. It also gave a Digested (trypsin; 5%) of 513982, a Peptide (trypsin; 5%) of 208344 and an Undigested (trypsin; 5%) of 4502764. For the same compound, the Digested (trypsin; 10%) was 95904, the Peptide (trypsin; 10%) was 39996 and the Undigested (trypsin; 10%) was 5112793. The Digested (trypsin; 15%) was 40955, the Peptide (trypsin; 15%) was 18047 and the Undigested (trypsin; 15%) was 5055881. It also gave a Digested (trypsin; 20%) of 26014, a Peptide (trypsin; 20%) of 9756 and an Undigested (trypsin; 20%) of 5626809.

`NC(CO)(CO)CO` [Tris] showed a Digested (porcine trypsin; 0.05M) of 1995427, a Peptide (porcine trypsin; 0.05M) of 860551 and an Undigested (porcine trypsin; 0.05M) of 3125626. For the same compound, the Digested (porcine trypsin; 0.1M) was 2524942, the Peptide (porcine trypsin; 0.1M) was 1101647 and the Undigested (porcine trypsin; 0.1M) was 2122289. The Digested (porcine trypsin; 0.25M) was 3462464, the Peptide (porcine trypsin; 0.25M) was 1564913 and the Undigested (porcine trypsin; 0.25M) was 997441. The Digested (porcine trypsin; 0.5M) was 3218135, the Peptide (porcine trypsin; 0.5M) was 1297337 and the Undigested (porcine trypsin; 0.5M) was 780101. The Digested (porcine trypsin; 1M) was 3458079, the Peptide (porcine trypsin; 1M) was 1431917 and the Undigested (porcine trypsin; 1M) was 1156801. The Digested (trypsin; 0.05M) was 2479332, the Undigested (trypsin; 0.05M) was 893529 and the Digested (trypsin; 0.1M) was 2540889. For the same compound, the Undigested (trypsin; 0.1M) was 990996, the Digested (trypsin; 0.25M) was 2440181 and the Undigested (trypsin; 0.25M) was 1291934. The Digested (trypsin; 0.5M) was 2205308, the Peptide (trypsin; 0.5M) was 879474 and the Undigested (trypsin; 0.5M) was 1490447. It also gave a Digested (trypsin; 1M) of 1923103, a Peptide (trypsin; 1M) of 745060 and an Undigested (trypsin; 1M) of 2177969.
